According to US20260256925A1, “INDAZOLE DERIVATIVES AS ESTROGEN RECEPTOR DEGRADERS” (REGENTS OF THE UNIVERSITY OF MICHIGAN, priority 2022, published 2026):

Legend:
[1] = Cell growth assay, WST-8 (compounds B1-B126); assay type: cell-based; conditions: 96 h; T47D cell line, WST-8, 4 days; read-out: Cell growth inhibition in T47D cell line IC50
In short: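 Read-out is WST-8 absorbance at 450 nm (2.5 h, 37° C) as a fraction of vehicle control, from three separate repeats. Compound exposure lasted 4 days, starting one day after plating 1500 cells/well.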

[2] = molecular target: T1, ER (Homo sapiens, UniProt P03372); test: In-cell western blot analysis, relative ER percentage (compounds B1-B126); assay type: cell-based; conditions: ER degradation, 16 hours, read-out: ICW DC50
T1 construct: endogenous in cells; probably T47D or MCF-7
T1 sequence (P03372 1-595): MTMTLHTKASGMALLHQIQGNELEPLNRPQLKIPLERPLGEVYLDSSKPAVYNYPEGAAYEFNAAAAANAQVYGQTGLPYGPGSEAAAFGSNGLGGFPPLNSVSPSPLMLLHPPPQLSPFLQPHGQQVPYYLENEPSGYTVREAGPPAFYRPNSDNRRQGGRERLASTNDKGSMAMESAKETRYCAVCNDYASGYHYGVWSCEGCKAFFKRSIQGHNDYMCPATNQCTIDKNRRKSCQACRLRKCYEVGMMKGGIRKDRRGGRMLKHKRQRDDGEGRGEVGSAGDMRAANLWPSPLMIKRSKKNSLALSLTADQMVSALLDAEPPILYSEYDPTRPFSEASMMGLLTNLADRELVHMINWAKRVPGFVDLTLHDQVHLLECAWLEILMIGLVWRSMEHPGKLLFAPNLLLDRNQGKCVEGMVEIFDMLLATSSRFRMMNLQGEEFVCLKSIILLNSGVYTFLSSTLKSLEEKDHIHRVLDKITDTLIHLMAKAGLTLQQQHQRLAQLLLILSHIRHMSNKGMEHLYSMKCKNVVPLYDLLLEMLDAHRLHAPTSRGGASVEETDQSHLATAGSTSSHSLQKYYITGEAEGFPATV
In short: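 Readout was a two-colour infrared in-cell western of formaldehyde-fixed cells after 16 h compound exposure at 0.5% DMSO, with 40,000 or 10,000 cells/well plated the previous night. Relative ER percentage compares treated wells against untreated/DMSO-treated wells taken as 100%.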

Compound | DC50 [2] | IC50 [1]
C[C@@H]1Cc2c(ccc3[nH]ncc23)[C@@H](c2c(F)cc(N3CCC4(CC3)CN(CC(=O)N3CCN5c6cc7c(cc6OC[C@@H]5C3)C(=O)N(C3CCC(=O)NC3=O)C7)C4)cc2F)N1CC(F)F (stereo partly drawn) [Compound B21, 3-((S)-3-(2-(7-(4-((6S,8R)-7-(2,2-difluoroethyl)-8-methyl-6,7,8,9-tetrahydro-3H-pyrazolo[4,3-f]isoquinolin-6-yl)-3,5-difluorophenyl)-2,7-diazaspiro[3.5]nonan-2-yl)acetyl)-8-oxo-1,2,3,4,4a,5,8,10-octahydro-9H-pyrazino[1′,2′: 4,5][1,4]oxazino[2,3-f]isoindol-9-yl)piperidine-2,6-dione] | < 10 nM | < 1 nM
C[C@@H]1Cc2c(ccc3[nH]ncc23)[C@@H](c2c(F)cc(N3CCC(CN4CCN5c6ccc7c(c6N(C)C[C@@H]5C4)CN(C4CCC(=O)NC4=O)C7=O)CC3)cc2F)N1CC(F)F (stereo partly drawn) [Compound B30, 3-((S)-7-((1-(4-((6S,8R)-7-(2,2-difluoroethyl)-8-methyl-6,7,8,9-tetrahydro-3H-pyrazolo[4,3-f]isoquinolin-6-yl)-3,5-difluorophenyl)piperidin-4-yl)methyl)-4-methyl-1-oxo-3,4,5,5a,6,7,8,9-octahydropyrazino[1,2-a]pyrrolo[3,4-f]quinoxalin-2(1H)-yl)piperidine-2,6-dione] | < 10 nM | 1 to 10 nM
C[C@@H]1Cc2c(ccc3[nH]ncc23)[C@@H](c2ccc(N3CCC4(CC3)CC(CN3CCC5(CC3)COc3c5ccc5c3CN(C3CCC(=O)NC3=O)C5=O)C4)cn2)N1CC(F)(F)F (stereo partly drawn) [Compound B60, 3-(1′-((7-(6-((6S,8R)-8-methyl-7-(2,2,2-trifluoroethyl)-6,7,8,9-tetrahydro-3H-pyrazolo[4,3-f]isoquinolin-6-yl)pyridin-3-yl)-7-azaspiro[3.5]nonan-2-yl)methyl)-6-oxo-6,8-dihydro-2H,7H-spiro[furo[2,3-e]isoindole-3,4′-piperidin]-7-yl)piperidine-2,6-dione] | < 10 nM | < 1 nM
C[C@@H]1Cc2c(ccc3[nH]ncc23)[C@@H](c2ccc(N3CCC4(CCN(CC(=O)N5Cc6cc7c(cc6C5)C(=O)N(C5CCC(=O)NC5=O)C7=O)CC4)CC3)cn2)N1CC(F)(F)F (stereo partly drawn) [Compound B48, 2-(2,6-dioxopiperidin-3-yl)-6-(2-(9-(6-((6S,8R)-8-methyl-7-(2,2,2-trifluoroethyl)-6,7,8,9-tetrahydro-3H-pyrazolo[4,3-f]isoquinolin-6-yl)pyridin-3-yl)-3,9-diazaspiro[5.5]undecan-3-yl)acetyl)-6,7-dihydropyrrolo[3,4-f]isoindole-1,3(2H,5H)-dione] | > 100 nM | > 10 nM
COc1cc(N2CCC(N3CC(N4CCN5c6cc7c(cc6OC[C@@H]5C4)C(=O)N(C4CCC(=O)NC4=O)C7)C3)CC2)ccc1[C@@H]1c2ccc3[nH]ncc3c2C[C@@H](C)N1CC(F)F (stereo partly drawn) [Compound B53, 3-((S)-3-(1-(1-(4-((6S,8R)-7-(2,2-difluoroethyl)-8-methyl-6,7,8,9-tetrahydro-3H-pyrazolo[4,3-f]isoquinolin-6-yl)-3-methoxyphenyl)piperidin-4-yl)azetidin-3-yl)-8-oxo-1,2,3,4,4a,5,8,10-octahydro-9H-pyrazino[1′,2′:4,5][1,4]oxazino[2,3-f]isoindol-9-yl)piperidine-2,6-dione] | 10 to 100 nM | < 1 nM
C[C@@H]1Cc2c(ccc3[nH]ncc23)[C@@H](c2c(F)cc(N3CCC4(CN(CC(=O)N5CCN6c7cc8c(cc7OC[C@@H]6C5)C(=O)N(C5CCC(=O)NC5=O)C8)C4)C3)cc2F)N1CC(F)F (stereo partly drawn) [Compound B41, 3-((S)-3-(2-(6-(4-((6S,8R)-7-(2,2-difluoroethyl)-8-methyl-6,7,8,9-tetrahydro-3H-pyrazolo[4,3-f]isoquinolin-6-yl)-3,5-difluorophenyl)-2,6-diazaspiro[3.4]octan-2-yl)acetyl)-8-oxo-1,2,3,4,4a,5,8,10-octahydro-9H-pyrazino[1′,2′:4,5][1,4]oxazino[2,3-f]isoindol-9-yl)piperidine-2,6-dione] | < 10 nM | < 1 nM

The next lines start with results.

DC50 [2] | Compound | IC50 [1]
> 100 nM | C[C@@H]1Cc2c(ccc3[nH]ncc23)[C@@H](c2ccc(N3CCC4(CC3)CC(CN3CCN5c6c(ccc7c6CN(C6CCC(=O)NC6=O)C7=O)OC[C@@H]5C3)C4)cn2)N1CC(F)(F)F (stereo partly drawn) [Compound B109, 3-((S)-9-((7-(6-((6S,8R)-8-methyl-7-(2,2,2-trifluoroethyl)-6,7,8,9-tetrahydro-3H-pyrazolo[4,3-f]isoquinolin-6-yl)pyridin-3-yl)-7-azaspiro[3.5]nonan-2-yl)mcthyl)-3-oxo-1,3,7,7a,8,9,10,11-octahydro-2H-pyrazino[1′,2′:4,5][1,4]oxazino[3,2-e]isoindol-2-yl)piperidine-2,6-dione] | 1 to 10 nM
10 to 100 nM | C[C@@H]1Cc2c(ccc3[nH]ncc23)[C@@H](c2ccc(N3CCC4(CC3)CC(CN3CCN5c6ccc(C(=O)N[C@H]7CCC(=O)NC7=O)nc6OC[C@H]5C3)CO4)cn2)N1CC(F)(F)F (stereo partly drawn) [Compound B93, (4aR)-N-((S)-2,6-dioxopiperidin-3-yl)-3-((8-(6-((6S,8R)-8-methyl-7-(2,2,2-trifluoroethyl)-6,7,8,9-tetrahydro-3H-pyrazolo[4,3-f]isoquinolin-6-yl)pyridin-3-yl)-1-oxa-8-azaspiro[4.5]decan-3-yl)methyl)-1,2,3,4,4a,5-hexahydropyrazino[1,2-d]pyrido[2,3-b][1,4]oxazine-8-carboxamide] | 1 to 10 nM
10 to 100 nM | COc1cc(N2CCC3(CC2)CC(CN2CCN4c5ccc6c(c5OC[C@H]4C2)CN(C2CCC(=O)NC2=O)C6=O)C3)ccc1[C@@H]1c2ccc3[nH]ncc3c2C[C@@H](C)N1CC(F)F (stereo partly drawn) [Compound B82, 3-((R)-7-((7-(4-((6S,8R)-7-(2,2-difluoroethyl)-8-methyl-6,7,8,9-tetrahydro-3H-pyrazolo[4,3-f]isoquinolin-6-yl)-3-methoxyphenyl)-7-azaspiro[3.5]nonan-2-yl)methyl)-1-oxo-1,3,5,5a,6,7,8,9-octahydro-2H-pyrazino[1′,2′:4,5][1,4]oxazino[2,3-e]isoindol-2-yl)piperidine-2,6-dione] | < 1 nM
< 10 nM | C[C@@H]1Cc2c(ccc3[nH]ncc23)[C@@H](c2ccc(N3CC4(CC(CN5CCN6c7cc8c(cc7OC[C@@H]6C5)C(=O)N(C5CCC(=O)NC5=O)C8)CO4)C3)cn2)N1CC(F)(F)F (stereo partly drawn) [Compound B97, 3-((4aS)-3-((2-(6-((6S,8R)-8-methyl-7-(2,2,2-trifluoroethyl)-6,7,8,9-tetrahydro-3H-pyrazolo[4,3-f]isoquinolin-6-yl)pyridin-3-yl)-5-oxa-2-azaspiro[3.4]octan-7-yl)methyl)-8-oxo-1,2,3,4,4a,5,8,10-octahydro-9H-pyrazino[1′,2′:4,5][1,4]oxazino[2,3-f]isoindol-9-yl)piperidine-2,6-dione] | < 1 nM
10 to 100 nM | C[C@@H]1Cc2c(ccc3[nH]ncc23)[C@@H](c2ccc(N3CCC(CN4CCN5c6ccc(C(=O)N[C@H]7CCC(=O)NC7=O)nc6OC[C@H]5C4)CC3)cn2)N1CC(F)(F)F [Compound B90, (R)-N-((S)-2,6-dioxopiperidin-3-yl)-3-((1-(6-((6S,8R)-8-methyl-7-(2,2,2-trifluoroethyl)-6,7,8,9-tetrahydro-3H-pyrazolo[4,3-f]isoquinolin-6-yl)pyridin-3-yl)piperidin-4-yl)methyl)-1,2,3,4,4a,5-hexahydropyrazino[1,2-d]pyrido[2,3-b][1,4]oxazine-8-carboxamide] | 1 to 10 nM
< 10 nM | COc1c2c(cc3c1CN(C1CCC(=O)NC1=O)C3=O)CN(CC(=O)N1CCC3(CC1)CCN(c1cc(F)c([C@@H]4c5ccc6[nH]ncc6c5C[C@@H](C)N4CC(F)F)c(F)c1)CC3)C2 (stereo partly drawn) [Compound B72, 3-(6-(2-(9-(4-((6S,8R)-7-(2,2-difluoroethyl)-8-methyl-6,7,8,9-tetrahydro-3H-pyrazolo[4,3-f]isoquinolin-6-yl)-3,5-difluorophenyl)-3,9-diazaspiro[5.5]undecan-3-yl)-2-oxoethyl)-4-methoxy-1-oxo-3,5,6,7-tetrahydropyrrolo[3,4-f]isoindol-2(1H)-yl)piperidine-2,6-dione] | 1 to 10 nM
< 10 nM | C[C@@H]1Cc2c(ccc3[nH]ncc23)[C@@H](c2ccc(N3CCC4(CC3)CC(CN3CCN5c6cc7c(cc6N(C)C[C@@H]5C3)C(=O)N(C3CCC(=O)NC3=O)C7)C4)cn2)N1CC(F)(F)F (stereo partly drawn) [Compound B61, 3-((S)-6-methyl-3-((7-(6-((6S,8R)-8-methyl-7-(2,2,2-trifluoroethyl)-6,7,8,9-tetrahydro-3H-pyrazolo[4,3-f]isoquinolin-6-yl)pyridin-3-yl)-7-azaspiro[3.5]nonan-2-yl)methyl)-8-oxo-2,3,4,4a,5,6,8,10-octahydropyrazino[1,2-a]pyrrolo[3,4-g]quinoxalin-9(1H)-yl)piperidine-2,6-dione] | < 1 nM
